Values quoted from earlier work, collected in article PMC10928227, “Assessing biologic/toxicologic effects of extractables from plastic contact materials for advanced therapy manufacturing using cell painting assay and cytotoxicity screening” (Scientific Reports, 2024).
Where two headings read alike, the source gives them in different places.

Assays:
[1] = cited from earlier work; for Gene mutation, Mammalian Cell Gene Mutation Assay: T-lymphoma Cell Lines
[2] = cited from earlier work; for Chromosome aberration, Micronucleus Assay / DNA damage and repair, COMET or Alkaline Elution / DNA damage and repair, Single Cell Gel Electrophoresis (comet) Assay: in Vivo; for DNA damage and repair, Single Cell Gel Electrophoresis (comet) Assay: ref Yu F. Sasaki et. al., 2000, Critical Reviews in Toxicology,30(6),Pp.629-799
[3] = Salmonella typhimurium, No Strain Information, in Vitro, Database: Genotoxicity OASIS, ref Mutation Research 584 (2005) 1-256, Kirkland et al.
[4] = Salmonella typhimurium, Strain TA 98, in Vitro, Database: Bacterial mutagenicity ISSSTY, ref CCRIS database,Toxnet databases (Romualdo Benigni)
[5] = Salmonella typhimurium, Strain TA 98, in Vitro, Database: Genotoxicity OASIS, ref P&G
[6] = Salmonella typhimurium, Strain TA 100, in Vitro, Database: Bacterial mutagenicity ISSSTY, ref CCRIS database,Toxnet databases (Romualdo Benigni)
[7] = Salmonella typhimurium, Strain TA 100, in Vitro, Database: Genotoxicity OASIS, ref P&G
[8] = Salmonella typhimurium, Strain TA 102, in Vitro, Database: Bacterial mutagenicity ISSSTY, ref CCRIS database,Toxnet databases (Romualdo Benigni)
[9] = Salmonella typhimurium, Strain TA 1535, in Vitro, Database: Bacterial mutagenicity ISSSTY, ref CCRIS database,Toxnet databases (Romualdo Benigni)
[10] = Salmonella typhimurium, Strain TA 1535, in Vitro, Database: Genotoxicity OASIS, ref P&G
[11] = Salmonella typhimurium, Strain TA 1537, in Vitro, Database: Bacterial mutagenicity ISSSTY, ref CCRIS database,Toxnet databases (Romualdo Benigni)
[12] = Salmonella typhimurium, Strain TA 1537, in Vitro, Database: Genotoxicity OASIS, ref P&G
[13] = in Vitro, Chinese hamster, Chinese Hamster Lung (CHL), Duration 24÷48 h, Database Genotoxicity OASIS, ref Sofuni, T., Ed. (1998). Data Book of Chromosomal Aberration Test In Vitro, Revised Edition
[14] = in Vitro, Database Genotoxicity & Carcinogenicity ECVAM, ref EURL ECVAM genotoxicity and carcinogencity database, Madia F et al, 2020
[15] = in Vitro, No Strain Information, Database Genotoxicity OASIS, ref Mutation Research 584 (2005) 1-256, Kirkland et al.
[16] = in Vitro, Salmonella typhimurium, No Strain Information, Database Genotoxicity OASIS, ref Journal of Medicinal Chemistry 48 (1), pp. 312-32, 25, Kazius J, McGuire R., Bursi R
[17] = in Vitro, Salmonella typhimurium, Strain TA 97, Database Genotoxicity OASIS, ref P&G
[18] = in Vitro, Salmonella typhimurium, Strain TA 98, Database Genotoxicity OASIS, ref P&G
[19] = in Vitro, Salmonella typhimurium, Strain TA 100, Database Genotoxicity OASIS, ref P&G
[20] = in Vitro, Salmonella typhimurium, Strain TA 102, OECD Guideline 471, Database Genotoxicity OASIS, ref CCRIS database,Toxnet databases
[21] = in Vitro, Salmonella typhimurium, Strain TA 1535, Database Genotoxicity OASIS, ref P&G
[22] = in Vitro, Salmonella typhimurium, Strain TA 1537, Database Genotoxicity OASIS, ref P&G
[23] = in Vitro, Salmonella typhimurium, Strain TA 1538, Database Genotoxicity OASIS, ref P&G
[24] = in Vitro, Database Genotoxicity OASIS, ref Mutation Research 584 (2005) 1-256, Kirkland et al.
[25] = Database Genotoxicity & Carcinogenicity ECVAM, ref EURL ECVAM genotoxicity and carcinogencity database, Madia F et al, 2020
[26] = Salmonella typhimurium, Strain TA 97, in Vitro, Database: Bacterial mutagenicity ISSSTY, ref CCRIS database,Toxnet databases (Romualdo Benigni)

SMILES | Gene mutation, Bacterial Reverse Mutation Assay (e.g. Ames Test) [1, 3] | Gene mutation, Bacterial Reverse Mutation Assay (e.g. Ames Test) [1, 4] | Gene mutation, Bacterial Reverse Mutation Assay (e.g. Ames Test) [1, 5] | Gene mutation, Bacterial Reverse Mutation Assay (e.g. Ames Test) [1, 6] | Gene mutation, Bacterial Reverse Mutation Assay (e.g. Ames Test) [1, 7] | Gene mutation, Bacterial Reverse Mutation Assay (e.g. Ames Test) [1, 8] | Gene mutation, Bacterial Reverse Mutation Assay (e.g. Ames Test) [1, 9] | Gene mutation, Bacterial Reverse Mutation Assay (e.g. Ames Test) [1, 10] | Gene mutation, Bacterial Reverse Mutation Assay (e.g. Ames Test) [1, 11] | Gene mutation, Bacterial Reverse Mutation Assay (e.g. Ames Test) [1, 12] | Chromosome aberration, Micronucleus Assay [1, 14] | Gene mutation, Bacterial Reverse Mutation Assay (e.g. Ames Test) [1, 14] | Gene mutation, Mammalian Cell Gene Mutation (MLA HPRT) [1, 14] | Chromosome aberration, in Vitro Mammalian Chromosome Aberration Test [1, 15] | Gene mutation, Bacterial Reverse Mutation Assay (e.g. Ames Test) [1, 17] | Gene mutation, Bacterial Reverse Mutation Assay (e.g. Ames Test) [1, 18] | Gene mutation, Bacterial Reverse Mutation Assay (e.g. Ames Test) [1, 19] | Gene mutation, Bacterial Reverse Mutation Assay (e.g. Ames Test) [1, 20] | Gene mutation, Bacterial Reverse Mutation Assay (e.g. Ames Test) [1, 21] | Gene mutation, Bacterial Reverse Mutation Assay (e.g. Ames Test) [1, 22] | other results
CC(C)(c1ccc(O)cc1)c1ccc(O)cc1 [80-05-7] | Negative | Negative | Negative | Negative | Negative | Negative | Negative | Negative | Negative | Negative | Negative | Negative | Inadequate | Positive | Negative | Negative | Negative | Negative | Negative | Negative | Gene mutation, Bacterial Reverse Mutation Assay (e.g. Ames Test) ([1]; Salmonella typhimurium, Strain TA 97A, in Vitro, Database: Bacterial mutagenicity ISSSTY, ref CCRIS database,Toxnet databases (Romualdo Benigni)): Negative; Chromosome aberration, in Vitro Mammalian Chromosome Aberration Test ([1]; in Vitro, Chinese hamster, Chinese Hamster Lung (CHL), Duration 6÷18 h, Database Genotoxicity OASIS, ref Sofuni, T., Ed. (1998). Data Book of Chromosomal Aberration Test In Vitro, Revised Edition): Negative; Chromosome aberration, in Vitro Mammalian Chromosome Aberration Test [1, 13]: Negative; Chromosome aberration, in Vitro Mammalian Chromosome Aberration Test [1, 14]: Positive; Gene mutation, Bacterial Reverse Mutation Assay (e.g. Ames Test) [1, 16]: Negative; Gene mutation, Bacterial Reverse Mutation Assay (e.g. Ames Test) [1, 23]: Negative; Gene mutation, Mammalian Cell Gene Mutation Assay [1, 24]: Negative; Chromosome aberration, in Vivo Mammalian Chromosome Aberration Test [2, 25]: Positive; Chromosome aberration, Micronucleus Assay [2, 25]: Negative
OCc1ccccc1 [100-51-6] | Negative | Negative | Negative | Negative | Negative | Negative | Negative | Negative | Negative | Negative | Negative | Negative | Inadequate | Positive | Negative | Negative | Negative | Negative | Negative | Negative | Gene mutation, Bacterial Reverse Mutation Assay (e.g. Ames Test) [1, 26]: Negative; Chromosome aberration, in Vitro Mammalian Chromosome Aberration Test ([1]; in Vitro, Chinese hamster, CHO Cells, Database Genotoxicity OASIS, ref ECHA, Registration dossier): Positive; Chromosome aberration, in Vitro Mammalian Chromosome Aberration Test [1, 13]: Negative; Chromosome aberration, in Vitro Mammalian Chromosome Aberration Test [1, 14]: Negative; Gene mutation, Bacterial Reverse Mutation Assay (e.g. Ames Test) [1, 16]: Negative; Gene mutation, Bacterial Reverse Mutation Assay (e.g. Ames Test) [1, 23]: Negative; Gene mutation, Mammalian Cell Gene Mutation Assay [1, 24]: Positive; Chromosome aberration, Micronucleus Assay [2, 25]: Negative; DNA damage and repair, COMET or Alkaline Elution [2, 25]: Positive; Chromosome aberration, Micronucleus Assay ([2]; Database Genotoxicity OASIS, ref Hayashi M., et al., Food Chem. Toxicol., 26(6), 487-500, 1988): Negative; DNA damage and repair, Single Cell Gel Electrophoresis (comet) Assay ([2]; Database Genotoxicity OASIS): Negative
Oc1ccccc1 [108-95-2] | Negative | Negative | Negative | Negative | Negative | Negative | Negative | Negative | Negative | Negative | Positive | Negative | Positive | Positive | Negative | Negative | Negative | Negative | Negative | Negative | Gene mutation, Bacterial Reverse Mutation Assay (e.g. Ames Test) [1, 26]: Negative; Gene mutation, Bacterial Reverse Mutation Assay (e.g. Ames Test) ([1]; Salmonella typhimurium, Strain TA 104, in Vitro, Database: Bacterial mutagenicity ISSSTY, ref CCRIS database,Toxnet databases (Romualdo Benigni)): Negative; Gene mutation, Bacterial Reverse Mutation Assay (e.g. Ames Test) ([1]; Salmonella typhimurium, Strain TA 7001, in Vitro, Database: Bacterial mutagenicity ISSSTY, ref CCRIS database,Toxnet databases (Romualdo Benigni)): Negative; Gene mutation, Bacterial Reverse Mutation Assay (e.g. Ames Test) ([1]; Salmonella typhimurium, Strain TA 7002, in Vitro, Database: Bacterial mutagenicity ISSSTY, ref CCRIS database,Toxnet databases (Romualdo Benigni)): Negative; Gene mutation, Bacterial Reverse Mutation Assay (e.g. Ames Test) ([1]; Salmonella typhimurium, Strain TA 7003, in Vitro, Database: Bacterial mutagenicity ISSSTY, ref CCRIS database,Toxnet databases (Romualdo Benigni)): Negative; Gene mutation, Bacterial Reverse Mutation Assay (e.g. Ames Test) ([1]; Salmonella typhimurium, Strain TA 7004, in Vitro, Database: Bacterial mutagenicity ISSSTY, ref CCRIS database,Toxnet databases (Romualdo Benigni)): Negative; Gene mutation, Bacterial Reverse Mutation Assay (e.g. Ames Test) ([1]; Salmonella typhimurium, Strain TA 7005, in Vitro, Database: Bacterial mutagenicity ISSSTY, ref CCRIS database,Toxnet databases (Romualdo Benigni)): Negative; Gene mutation, Bacterial Reverse Mutation Assay (e.g. Ames Test) ([1]; Salmonella typhimurium, Strain TA 7006, in Vitro, Database: Bacterial mutagenicity ISSSTY, ref CCRIS database,Toxnet databases (Romualdo Benigni)): Negative; Genetic Toxicity, Gene mutation (Bacterial Reverse Mutation Assay, e.g. Ames Test) ([1]; Salmonella typhimurium, strain TA 100, in Vitro, scale Gene mutation I, ref CCRIS database, Toxnet databases, Database: Bacterial mutagenicity ISSSTY (Romualdo Benigni, 2011)): Negative; Chromatids exchanges/ recombination, Sister Chromatid Exchange (SCE) [1, 14]: Positive; DNA damage and repair, DNA Adducts [1, 14]: Positive; Gene mutation, in Vitro Mammalian Cell Micronucleus Test [1, 24]: Positive; Gene mutation, Bacterial Reverse Mutation Assay (e.g. Ames Test) [1, 23]: Negative; Gene mutation, Mammalian Cell Gene Mutation Assay [1, 24]: Positive; Genetic Toxicity, unscheduled DNA synthesis (UDS in Vitro) ([1]; in Vitro, scale Mutagenicity I (ECVAM), ref EURL ECVAM genotoxicity and carcinogencity database, Madia F et al, 2020): Positive; Chromosome aberration, in Vivo Mammalian Chromosome Aberration Test [2, 25]: Negative; Chromosome aberration, Micronucleus Assay [2, 25]: Positive; DNA damage and repair, COMET or Alkaline Elution [2, 25]: Positive; Chromosome aberration, Micronucleus Assay ([2]; Database Genotoxicity OASIS, ref Ciranni, R., Barale, & Marrazzini, A. (1988), Mutat Res, 208, 61-67): Negative; DNA damage and repair, Single Cell Gel Electrophoresis (comet) Assay ([2]; Database Genotoxicity OASIS): Positive
